# Data as given in ChEMBL document CHEMBL1201862, “PubChem BioAssay data set” (2004).
#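 Grown in 96-well plates, cells were treated for 48 hours with each compound at five concentrations. Insufficient inhibition: endpoint recorded as highest concentration tested. Here, GI50 denotes the concentration required for 50% inhibition of growth.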 Calls of active or inactive are those of the source. Cut-off read from the data, not from the text of the source: active = GI50 up to about 1.1 µM and inactive = higher.
# Columns and labels:
# Test in all cases: inhibition of tumour cell growth, NCI panel, 48 h
# [1] = system: K562
# [2] = system: BT-549
# [3] = system: OVCAR-8
# [4] = system: HCT-116
# [5] = system: HCT-15
# [6] = system: COLO 205
# [7] = system: SF-295
# [8] = system: SK-OV-3
# [9] = system: 786-0
# [10] = system: SF-539
# [11] = system: KM12
# [12] = system: MDA-MB-231
# [13] = system: M14
# [14] = system: HOP-92
# [15] = system: UO-31
# [16] = system: MDA-N
# [17] = system: NCI-H226
# [18] = system: RXF 393
# [19] = system: OVCAR-5
# [20] = system: NCI-H460
# [21] = system: T47D
# [22] = system: CAKI-1
# [23] = system: IGROV-1
# [24] = system: LOX IMVI
# [25] = system: SW-620
# [26] = system: OVCAR-4
# [27] = system: UACC-257
# [28] = system: SNB-19
# [29] = system: MCF7
# [30] = system: MDA-MB-435
# [31] = system: UACC-62
# [32] = system: U-251
# [33] = system: NCI/ADR-RES
# [34] = system: ACHN
# [35] = system: SF-268
# [36] = system: SR
# [37] = system: DU-145
# [38] = system: HCC 2998
# [39] = system: HOP-62
# [40] = system: SN12C
# [41] = system: NCI-H23
# [42] = system: MOLT-4
# [43] = system: PC-3
# [44] = system: TK-10
# [45] = system: OVCAR-3
# [46] = system: NCI-H522
# [47] = system: SK-MEL-5
# [48] = system: Hs-578T
# [49] = system: SNB-75
# [50] = system: CCRF-CEM
# [51] = system: EKVX
# [52] = system: SK-MEL-2
# [53] = system: RPMI-8226
# [54] = system: A498
# [55] = system: SK-MEL-28
# [56] = system: A549
# [57] = system: HT-29
# [58] = system: Malme-3M
# [59] = system: HL-60
smiles,measurement,setting,value
Oc1nc2c(c(-c3ccc(F)cc3)n1)COC/C2=C\c1ccc(F)cc1,GI50,[1],> 100 µM (inactive)
same,GI50,[2],> 100 µM (inactive)
same,GI50,[3],> 100 µM (inactive)
same,GI50,[4],> 100 µM (inactive)
same,GI50,[5],> 100 µM
same,GI50,[6],> 100 µM (inactive)
same,GI50,[7],> 100 µM (inactive)
same,GI50,[8],> 100 µM (inactive)
same,GI50,[9],> 100 µM (inactive)
same,GI50,[10],> 100 µM (inactive)
same,GI50,[11],> 100 µM (inactive)
same,GI50,[12],> 100 µM (inactive)
same,GI50,[13],> 100 µM (inactive)
same,GI50,[14],> 100 µM (inactive)
same,GI50,[15],> 100 µM (inactive)
same,GI50,[16],> 100 µM (inactive)
same,GI50,[17],> 100 µM (inactive)
same,GI50,[18],> 100 µM (inactive)
same,GI50,[19],> 100 µM (inactive)
same,GI50,[20],> 100 µM (inactive)
same,GI50,[21],> 100 µM (inactive)
same,GI50,[22],> 100 µM (inactive)
same,GI50,[23],> 100 µM (inactive)
same,GI50,[24],> 100 µM (inactive)
same,GI50,[25],> 100 µM (inactive)
same,GI50,[26],> 100 µM (inactive)
same,GI50,[27],> 100 µM (inactive)
same,GI50,[28],> 100 µM (inactive)
same,GI50,[29],> 100 µM (inactive)
same,GI50,[30],> 100 µM (inactive)
same,GI50,[31],> 100 µM (inactive)
same,GI50,[32],> 100 µM (inactive)
same,GI50,[33],> 100 µM (inactive)
same,GI50,[34],> 100 µM (inactive)
same,GI50,[35],> 100 µM (inactive)
same,GI50,[36],> 100 µM (inactive)
same,GI50,[37],> 100 µM (inactive)
same,GI50,[38],> 100 µM (inactive)
same,GI50,[39],> 100 µM (inactive)
same,GI50,[40],> 100 µM (inactive)
same,GI50,[41],> 100 µM (inactive)
same,GI50,[42],> 100 µM (inactive)
same,GI50,[43],> 100 µM (inactive)
same,GI50,[44],> 100 µM (inactive)
same,GI50,[45],> 100 µM (inactive)
same,GI50,[46],> 100 µM (inactive)
same,GI50,[47],> 100 µM (inactive)
same,GI50,[48],> 100 µM (inactive)
same,GI50,[49],> 100 µM (inactive)
same,GI50,[50],> 100 µM (inactive)
same,GI50,[51],> 100 µM (inactive)
same,GI50,[52],> 100 µM (inactive)
same,GI50,[53],> 100 µM (inactive)
same,GI50,[54],> 100 µM (inactive)
NC(=O)C(=CNC(=S)Nc1ccc(S(=O)(=O)Nc2ccccn2)cc1)C(N)=O,GI50,[1],40.6 µM (inactive)
same,GI50,[2],> 100 µM (inactive)
same,GI50,[3],> 100 µM (inactive)
same,GI50,[4],46.7 µM (inactive)
same,GI50,[5],> 78 µM
same,GI50,[6],> 100 µM (inactive)
same,GI50,[7],> 100 µM (inactive)
same,GI50,[55],> 100 µM (inactive)
same,GI50,[8],> 100 µM (inactive)
same,GI50,[9],> 100 µM (inactive)
same,GI50,[10],> 100 µM (inactive)
same,GI50,[56],> 100 µM (inactive)
same,GI50,[11],> 100 µM (inactive)
same,GI50,[12],> 100 µM (inactive)
same,GI50,[13],> 100 µM (inactive)
same,GI50,[14],> 100 µM (inactive)
same,GI50,[15],> 100 µM (inactive)
same,GI50,[16],> 93.8 µM (inactive)
same,GI50,[17],> 100 µM (inactive)
same,GI50,[18],> 100 µM (inactive)
same,GI50,[19],> 100 µM (inactive)
same,GI50,[20],> 100 µM (inactive)
same,GI50,[21],> 100 µM (inactive)
same,GI50,[22],> 100 µM (inactive)
same,GI50,[23],> 100 µM (inactive)
same,GI50,[24],> 93.1 µM (inactive)
same,GI50,[25],39.3 µM (inactive)
same,GI50,[26],> 100 µM (inactive)
same,GI50,[27],> 100 µM (inactive)
same,GI50,[57],> 100 µM (inactive)
same,GI50,[28],> 100 µM (inactive)
same,GI50,[29],> 83.2 µM (inactive)
same,GI50,[30],> 100 µM (inactive)
same,GI50,[31],> 100 µM (inactive)
same,GI50,[32],> 100 µM (inactive)
same,GI50,[33],55.3 µM (inactive)
same,GI50,[34],> 100 µM (inactive)
same,GI50,[35],> 100 µM (inactive)
same,GI50,[36],41.5 µM (inactive)
same,GI50,[37],> 100 µM (inactive)
same,GI50,[38],> 10 µM (inactive)
same,GI50,[39],> 100 µM (inactive)
same,GI50,[40],> 100 µM (inactive)
same,GI50,[41],> 100 µM (inactive)
same,GI50,[42],1.52 µM (inactive)
same,GI50,[43],> 100 µM (inactive)
same,GI50,[44],> 100 µM (inactive)
same,GI50,[45],> 100 µM (inactive)
same,GI50,[46],50.5 µM (inactive)
same,GI50,[47],> 100 µM (inactive)
same,GI50,[48],> 100 µM (inactive)
same,GI50,[49],> 100 µM (inactive)
same,GI50,[50],30 µM (inactive)
same,GI50,[51],> 100 µM (inactive)
same,GI50,[52],> 100 µM (inactive)
same,GI50,[53],> 100 µM (inactive)
same,GI50,[54],> 100 µM (inactive)
O=c1[nH]c(=S)[nH]c(-c2ccccc2)c1Cc1c(O)ccc2ccccc12 [CAMBINOL],GI50,[1],31.3 µM (inactive)
same,GI50,[2],27.1 µM (inactive)
same,GI50,[3],38 µM (inactive)
same,GI50,[4],24.7 µM (inactive)
same,GI50,[58],7.98 µM (inactive)
same,GI50,[5],34.4 µM
same,GI50,[6],21.5 µM (inactive)
same,GI50,[7],52 µM (inactive)
same,GI50,[55],39.2 µM (inactive)
same,GI50,[8],46.1 µM (inactive)
same,GI50,[9],34.9 µM (inactive)
same,GI50,[10],25.6 µM (inactive)
same,GI50,[56],32.2 µM (inactive)
same,GI50,[11],30.6 µM (inactive)
same,GI50,[12],38.6 µM (inactive)
same,GI50,[13],27.9 µM (inactive)
same,GI50,[14],26.1 µM (inactive)
same,GI50,[15],29.6 µM (inactive)
same,GI50,[16],27.9 µM (inactive)
same,GI50,[17],29.6 µM (inactive)
same,GI50,[18],29.8 µM (inactive)
same,GI50,[19],33.4 µM (inactive)
same,GI50,[20],48.2 µM (inactive)
same,GI50,[21],24.4 µM (inactive)
same,GI50,[22],25.5 µM (inactive)
same,GI50,[23],33.7 µM (inactive)
same,GI50,[24],36.1 µM (inactive)
same,GI50,[25],42.8 µM (inactive)
same,GI50,[26],39.7 µM (inactive)
same,GI50,[59],20.6 µM (inactive)
same,GI50,[27],27.2 µM (inactive)
same,GI50,[57],39.4 µM (inactive)
same,GI50,[28],37.2 µM (inactive)
same,GI50,[29],33 µM (inactive)
same,GI50,[30],31 µM (inactive)
same,GI50,[31],21 µM (inactive)
same,GI50,[32],36.1 µM (inactive)
same,GI50,[33],33.5 µM (inactive)
same,GI50,[34],34 µM (inactive)
same,GI50,[35],24.7 µM (inactive)
same,GI50,[36],34.8 µM (inactive)
same,GI50,[37],41.9 µM (inactive)
same,GI50,[39],64 µM (inactive)
same,GI50,[40],32.7 µM (inactive)
same,GI50,[41],29.6 µM (inactive)
same,GI50,[42],26.1 µM (inactive)
same,GI50,[43],37.2 µM (inactive)
same,GI50,[44],29.1 µM (inactive)
same,GI50,[45],54.3 µM (inactive)
same,GI50,[46],8.89 µM (inactive)
same,GI50,[47],21 µM (inactive)
same,GI50,[48],43.9 µM (inactive)
same,GI50,[49],25.6 µM (inactive)
same,GI50,[50],19.9 µM (inactive)
same,GI50,[51],26.1 µM (inactive)
same,GI50,[52],20.4 µM (inactive)
same,GI50,[53],21.6 µM (inactive)
same,GI50,[54],21.3 µM (inactive)
